Laboratory results from PMC9241695, “Selective Metal Chelation by a Thiosemicarbazone Derivative Interferes with Mitochondrial Respiration and Ribosome Biogenesis in Candida albicans” (Microbiology Spectrum, 2022).
Converted amounts (≈) assume the structure as drawn.

Key:
Test in all cases: Antifungal susceptibility testing, microbroth dilution MIC
Assay type in all cases: cell-based
C. neoformans H99 = settings: Cryptococcus neoformans, H99, 48 h, read-out: MIC (μg/mL) against fungi H99
Description: (§1) Compound library. The thiosemicarbazone derivatives Triapine and COTI-2 were purchased from Med Chem Express (MCE). The other 87 thiosemicarbazones used in this study were previously synthesized by our collaborators (1, 2). Their structures are shown in Table 1 and Table S1 to help the reader clearly understand the relationship between structure and activity.
(§2) Strains and culture conditions. Clinically derived C. albicans isolates, including G5, F5, and Gu5, were kindly provided by Professor Joachim Morschhäuser of the University of Würzburg. Other clinical C. albicans isolates were kindly donated by Professor Qingguo Qi of Shandong University and Qianfoshan Hospital of Shandong Province Other Candida strains were obtained from Jinan Central Hospital.
(§3) The zap1 mutant and its complemented strain were kindly provided by Professor Aaron P. Mitchell of Carnegie Mellon University (3). The C. neoformans strains used in this study was kindly donated by Professor Guojian Liao of Southwest University and A. fumigatus strain used in this study was provided by Professor Ling Lu of Nanjing Normal University. […]
(§4) Antifungal susceptibility testing. To determine in vitro antifungal activities, the microbroth dilution method was carried out in RPMI1640 medium according to the guidelines of the Clinical and Laboratory Standards Institute (4, 5). The initial concentration in RPMI1640 medium was 1 × 10^3 CFU/mL for the C. albicans and C. neoformans suspensions but 1 × 10^4 CFU/mL for A. fumigatus. The range of final drug concentrations was 0.0156–64 μg/mL. The plates were incubated at35°C for 24 […]
(§5) h (for C. albicans, C. krusei, C. tropicalis, C. parapsilosis) or 48 h (for C. neoformans, A. fumigatus). The MIC was determined based on visible growth inhibition compared with the control. All experiments were performed in duplicate. […]

A. fumigatus AF293 = settings: Aspergillus fumigatus, AF293, 48 h, read-out: MIC (μg/mL) against fungi AF293
Description: as §1, §2, §3, §4, §5

C. albicans SC5314 = settings: Candida albicans, SC5314, 24 h, read-out: MIC (μg/mL) against fungi SC5314
Description: as §1, §2
as §3, with “University. Before in vitro and in vivo experiments, all C. albicans strains were grown on YPD agar plates. After culturing at 30°C for 24 h, colonies of each strain were cultured in liquid YPD medium at 30°C with continuous shaking” for “University.”
as §4, §5

| SMILES | MIC (C. neoformans H99) [µg/mL] | MIC (A. fumigatus AF293) [µg/mL] | MIC (C. albicans SC5314) [µg/mL] |
| --- | --- | --- | --- |
| C/C(=N\NC(=S)Nc1cccc(Br)c1)c1ccccn1 [Compound 19q] | 0.25 (≈ 0.716 µM) | 1 (≈ 2.86 µM) | 0.5 (≈ 1.43 µM) |
| S=C(N/N=C1\CCCc2cccnc21)N1CCN(c2ccccn2)CC1 [COTI-2, 4-(pyridine-2-yl)-N-([(8E)-5,6,7,8-tetrahydroquinolin-8-ylidene]amino) piperazine-1-carbothioamide, reference compound] | 0.0625 (≈ 0.171 µM) | 1 (≈ 2.73 µM) | 0.5 (≈ 1.36 µM) |
| C/C(=N\NC(=S)Nc1ccccc1Br)c1ccccn1 [Compound 19r] | 8 (≈ 22.9 µM) | 8 (≈ 22.9 µM) | 1 (≈ 2.86 µM) |
| S=C(N/N=C(\c1ccccc1)c1ccccn1)Nc1ccccc1Br [Compound 19x] | 0.5 (≈ 1.22 µM) | 16 (≈ 38.9 µM) | 1 (≈ 2.43 µM) |
